{
  "source": "patent US20090123581A1",
  "about": "“COLLAGEN CROSS-LINKING AGENTS ON DENTAL RESTORATIVE TREATMENT AND PREVENTIVE DENTISTRY” (THE BOARD OF TRUSTEES OF THE UNIVERSITY OF ILLINOIS, priority 2006, published 2009)",
  "assay": "Tensile bond strength (TBS) of a total-etch adhesive with or without proteolytic challenge (Example 5)",
  "set-up": "species or system human",
  "conditions": "for TBS (tensile bond strength): 5% glutaraldehyde 1 hour after etching, One-Step adhesive",
  "method": "To evaluate the effect of glutaraldehyde on the tensile bond strength (TBS) of a total-etch adhesive with or without proteolytic challenge, the experiment described below was performed.\nTen human molars were polished until occlusal dentin was exposed and were divided according to the surface treatment: a control (no treatment) treatment (G1) and a 5% glutaraldehyde treatment (G2). Samples of G1 were etched with 37% phosphoric acid, rinsed, blotted dried, and One-Step (Bisco, Richmond, BC, Canada) was applied, followed by application of a composite resin used to build-up a “crown.” G2 was treated in the same manner, except that after etching, 5% glutaraldehyde was applied on the surface for 1 hour. After 24 hours, samples were sectioned into 1.0×1.0 mm beams. The beams were subdivided according to the proteolytic challenge: stored in water for 2 hours (no challenge) and stored in 1.5% NaOCl solution for 2 hours. Then samples were rinsed and tested in tensile at a crosshead speed of 1 mm/min using a universal testing machine. Data were statistically analyzed using ANOVA and Fisher's PLSD tests (p<0.05).",
  "data": [
    {"smiles": "O=CCCCC=O", "note": "[GD, glutaraldehyde]", "values": [
      {"measurement": "TBS (tensile bond strength)", "setting": "No challenge (water 2 hours)", "result": "71.11 (12.20)A MPa"},
      {"measurement": "TBS (tensile bond strength)", "setting": "stored in 1.5% NaOCl 2 hours", "result": "65.91 (18.06)AB MPa"},
      {"measurement": "change in TBS values after NaOCl storage", "setting": "5% glutaraldehyde, 1.5% NaOCl 2 hours", "result": "not significantly affected"}
    ]}
  ]
}
